Laboratory results from ChEMBL document CHEMBL1201862, “PubChem BioAssay data set” (2004).
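In this assay, cells in 96-well plates receive the compound at five concentrations for 48 hours. Endpoints are linearly interpolated between the surrounding concentrations. GI50 = concentration required for 50% inhibition of growth.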 The source made the active and inactive calls. Rule as the data show it: active = GI50 up to about 1.1 µM and inactive = higher.

Columns and labels:
Assay in all cases: DTP human tumour cell line panel, 48 h
[1] = system: 786-0
[2] = system: CAKI-1
[3] = system: COLO 205
[4] = system: HCC 2998
[5] = system: HCT-15
[6] = system: HOP-62
[7] = system: IGROV-1
[8] = system: K562
[9] = system: KM12
[10] = system: Malme-3M
[11] = system: NCI-H460
[12] = system: OVCAR-3
[13] = system: OVCAR-4
[14] = system: OVCAR-8
[15] = system: SF-539
[16] = system: SK-MEL-2
[17] = system: SNB-19
[18] = system: TK-10
[19] = system: U-251
[20] = system: MDA-MB-231

SMILES | GI50 [1] | GI50 [2] | GI50 [3] | GI50 [4] | GI50 [5] [µM] | GI50 [6] | GI50 [7] | GI50 [8] | GI50 [9] | GI50 [10] | GI50 [11] | GI50 [12] | GI50 [13] | GI50 [14] | GI50 [15] | GI50 [16] | GI50 [17] | GI50 [18] | GI50 [19] | GI50 [20]
Cc1cccc(N2C(=O)/C(=C/c3ccc(N(CCC#N)CCC#N)cc3C)N=C2c2cc([N+](=O)[O-])ccc2Cl)c1 | > 100 µM (inactive) | 8.18 µM (inactive) | 47.3 µM (inactive) | > 100 µM (inactive) | > 100 | > 100 µM (inactive) | > 100 µM (inactive) | 86.1 µM (inactive) | > 100 µM (inactive) | > 100 µM (inactive) | > 100 µM (inactive) | > 100 µM (inactive) | > 100 µM (inactive) | > 100 µM (inactive) | > 100 µM (inactive) | > 100 µM (inactive) | > 100 µM (inactive) | > 100 µM (inactive) | > 100 µM (inactive) | 
CS/C(=N\C#N)S/C=C/C(=O)c1ccc(Cl)cc1 | 20.8 µM (inactive) | 6.52 µM (inactive) | 25.4 µM (inactive) | 42.4 µM (inactive) | 30.2 | 38.2 µM (inactive) | 18.3 µM (inactive) | 10.5 µM (inactive) | 45.7 µM (inactive) | 26.4 µM (inactive) | > 100 µM (inactive) | 15.2 µM (inactive) | 64.7 µM (inactive) | 20.2 µM (inactive) | 20.8 µM (inactive) | 17.6 µM (inactive) | 42 µM (inactive) | 23.6 µM (inactive) | 31.9 µM (inactive) | 
COC(=O)C1CC(C(=O)OC)c2nc3cc(C)ccc3nc21 (stereo not drawn) | > 100 µM (inactive) | > 100 µM (inactive) | > 100 µM (inactive) | > 100 µM (inactive) | > 100 | > 100 µM (inactive) | > 100 µM (inactive) | > 100 µM (inactive) | > 100 µM (inactive) | > 100 µM (inactive) | > 100 µM (inactive) | > 100 µM (inactive) | > 100 µM (inactive) | > 100 µM (inactive) | > 100 µM (inactive) | > 100 µM (inactive) | > 100 µM (inactive) | > 100 µM (inactive) | > 100 µM (inactive) | 
CN(C)NC(=O)/C(=C/c1ccc(Cl)cc1)NC(=O)c1ccccc1 | > 100 µM (inactive) | > 100 µM (inactive) | 45.2 µM (inactive) | > 100 µM (inactive) | 32 | > 100 µM (inactive) | > 100 µM (inactive) | 85.3 µM (inactive) | > 100 µM (inactive) | > 100 µM (inactive) | 69.3 µM (inactive) | > 100 µM (inactive) | > 100 µM (inactive) | > 100 µM (inactive) | > 100 µM (inactive) | > 100 µM (inactive) | > 100 µM (inactive) | > 100 µM (inactive) | > 100 µM (inactive) | 
Cc1ccc2[nH]c3c4c5ccccc5nc-4c[nH]c3c2c1 | 17.1 µM (inactive) | 15.8 µM (inactive) | 17.5 µM (inactive) | 16.1 µM (inactive) |  | 10 µM (inactive) | 15 µM (inactive) | 12.6 µM (inactive) | 15.6 µM (inactive) | 19.1 µM (inactive) | 15.3 µM (inactive) | 10 µM (inactive) | 22.1 µM (inactive) | 18.6 µM (inactive) | 16.9 µM (inactive) | 18.9 µM (inactive) | 17.3 µM (inactive) | 21 µM (inactive) | 14.8 µM (inactive) | 
c1ccc2c(c1)OC(N1CCCC1)c1cnc(N3CCOCC3)nc1-2 (stereo not drawn) | 59.8 µM (inactive) | 27.8 µM (inactive) | 51.2 µM (inactive) |  | 45.4 | 57.5 µM (inactive) |  | 62.5 µM (inactive) | > 100 µM (inactive) | 21.9 µM (inactive) | 53.3 µM (inactive) | 34.5 µM (inactive) | 41.6 µM (inactive) | > 100 µM (inactive) | > 100 µM (inactive) |  | 53 µM (inactive) | 29.9 µM (inactive) | > 100 µM (inactive) | 45.1 µM (inactive)
CCOC(=O)C(=O)Nc1ccc([N+](=O)[O-])cc1C#N | > 100 µM (inactive) | > 100 µM (inactive) |  | > 100 µM (inactive) | > 100 | > 100 µM (inactive) | > 100 µM (inactive) | > 100 µM (inactive) | > 100 µM (inactive) | > 100 µM (inactive) | > 100 µM (inactive) | > 100 µM (inactive) | > 100 µM (inactive) | > 100 µM (inactive) | > 100 µM (inactive) | > 100 µM (inactive) | > 100 µM (inactive) | > 100 µM (inactive) | > 100 µM (inactive) | 
CCCOc1ccc(/C=C/c2cc(OC)c(OC)c(OC)c2)cc1 | 0.481 µM (active) | 0.209 µM (active) | 0.298 µM (active) | 3.02 µM (inactive) | 0.348 | 0.265 µM (active) | 0.399 µM (active) | 0.0733 µM (active) | 0.305 µM (active) | 0.21 µM (active) | 0.439 µM (active) | 0.146 µM (active) | 0.971 µM (active) | 0.525 µM (active) | 0.269 µM (active) | 0.822 µM (active) | 0.681 µM (active) | 55.1 µM (inactive) | 0.384 µM (active) | 
